Results: ChEMBL document CHEMBL4609974, “Triazole derivatives and their antiplasmodial and antimalarial activities” (Eur J Med Chem, 2019)
In brackets after ≈: the same amount, converted by molar mass.

What was measured:
[1] = test system: Plasmodium falciparum; test: Antimalarial activity against chloroquine-sensitive Plasmodium falciparum D6; format: functional, organism-based
[2] = test system: Plasmodium falciparum; test: Antimalarial activity against chloroquine-resistant Plasmodium falciparum W2; format: functional, organism-based
[3] = test system: Plasmodium falciparum; test: Antimalarial activity against chloroquine-resistant Plasmodium falciparum K1; format: functional, organism-based
[4] = test system: Plasmodium falciparum; test: Antimalarial activity against […] Plasmodium falciparum W2; format: functional, organism-based
[5] = test system: Plasmodium falciparum; test: Antimalarial activity against chloroquine-resistant Plasmodium falciparum […]; format: functional, organism-based
[6] = test system: Plasmodium falciparum; test: Antimalarial activity against chloroquine-sensitive Plasmodium falciparum 3D7; format: functional, organism-based
[7] = test system: PC-3; test: Cytotoxicity against human PC3 cells assessed as reduction in cell viability; format: functional, cell-based
[8] = test system: Staphylococcus aureus; test: Antimicrobial activity against Staphylococcus aureus; format: functional
[9] = test system: Enterococcus faecalis; test: Antimicrobial activity against Enterococcus faecalis; format: functional
[10] = test system: MRC5; test: Cytotoxicity against human MRC5 cells assessed as reduction in cell viability; format: functional
[11] = Selectivity index, ratio of CC50 for human MRC5 cells assessed as reduction in cell viability to MIC for chloroquine-resistant Plasmodium falciparum K1; format: toxicity; settings: read-out: Selectivity Index
[12] = Selectivity index, ratio of CC50 for human MRC5 cells assessed as reduction in cell viability to MIC for […]; format: toxicity; settings: read-out: Selectivity Index

| SMILES | IC50 [1] | IC50 [2] | IC50 [3] | other results |
| --- | --- | --- | --- | --- |
| COc1ccc(OCc2cn(CCNc3ccnc4cc(Cl)ccc34)nn2)cc1 | 0.9 to 11.5 µM | 0.9 to 11.5 µM | – | – |
| Clc1ccc2c(NCCn3cc(COc4ccc5ccccc5c4)nn3)ccnc2c1 | 0.9 to 11.5 µM | 0.9 to 11.5 µM | – | – |
| COc1cccc(-n2cc(CNc3ccc4nc(-c5ccccc5)c(-c5ccccc5)nc4c3)nn2)c1 | – | – | 7.1 to 153 µM | – |
| Cc1cccc(OCc2cn(CCNc3ccnc4cc(Cl)ccc34)nn2)c1 | 0.9 to 11.5 µM | 0.9 to 11.5 µM | – | – |
| Clc1ccc2c(NCCCn3cc(COc4ccc5ccccc5c4)nn3)ccnc2c1 | 0.59 to 4.71 µM | 0.59 to 4.71 µM | – | – |
| Clc1ccc2c(NCCn3cc(COc4c(Cl)cccc4Cl)nn3)ccnc2c1 | 0.9 to 11.5 µM | 0.9 to 11.5 µM | – | – |
| O=C(CSc1nnc(Cc2ccccc2)n1-c1ccccc1)N1CCc2ccccc21 | – | 4.59 µM | – | IC50 [4]: 4.59 µM |
| Fc1ccc(-n2cc(CNc3ccc4nc(-c5ccccc5)c(-c5ccccc5)nc4c3)nn2)cc1 | – | – | 7.1 to 153 µM | – |
| COc1cccc(-n2cc(CN(Cc3cn(-c4cccc(OC)c4)nn3)c3ccc4nc(-c5ccc(F)cc5)c(-c5ccc(F)cc5)nc4c3)nn2)c1 | – | – | 9.76 to 3540 µM | – |
| Fc1ccc(-c2nc3ccc(N(Cc4cn(-c5ccccc5)nn4)Cc4cn(-c5ccccc5)nn4)cc3nc2-c2ccc(F)cc2)cc1 | – | – | 9.76 to 3540 µM | – |
| Cc1nnc(Cn2cc(C(=O)NNC(=S)Nc3ccccc3)c(=O)c3cc(F)c(Cl)cc32)n1N | – | – | – | IC50 [5]: 3.91 µM |
| OC1(c2cn(CCNc3ccnc4cc(Cl)ccc34)nn2)CCCCC1 | 0.9 to 11.5 µM | 0.9 to 11.5 µM | – | – |
| OC1(c2cn(CCCNc3ccnc4cc(Cl)ccc34)nn2)CCCCC1 | 0.59 to 4.71 µM | 0.59 to 4.71 µM | – | – |
| OCc1cn(CCNc2ccnc3cc(Cl)ccc23)nn1 | 0.9 to 11.5 µM | 0.9 to 11.5 µM | – | – |
| Cc1ccc(OCc2cn(CCNc3ccnc4cc(Cl)ccc34)nn2)cc1C | 0.9 to 11.5 µM | 0.9 to 11.5 µM | – | – |
| COc1ccc2cc3[n+](cc2c1OCc1cn(-c2ccc(S(=O)(=O)N4CCOCC4)cc2)nn1)CCc1cc2c(cc1-3)OCO2 | – | – | – | IC50 [6]: 0.142 to 28 µM |
| Cc1nnc(Cn2cc(C(=O)NNC(=O)Nc3ccccc3)c(=O)c3cc(F)c(Cl)cc32)n1N | – | – | – | IC50 [5]: 3.89 µM |
| CC(=O)c1ccc(OCc2cn(CCNc3ccnc4cc(Cl)ccc34)nn2)cc1 | 0.9 to 11.5 µM | 0.9 to 11.5 µM | – | – |
| Clc1ccc2c(NCCn3cc(COc4ccc(Br)cc4)nn3)ccnc2c1 | 0.9 to 11.5 µM | 0.9 to 11.5 µM | – | – |
| Cc1ccc(-n2cc(CNc3ccc4nc(-c5ccccc5)c(-c5ccccc5)nc4c3)nn2)cc1 | – | – | 7.1 to 153 µM | – |

| SMILES | IC50 [1] | IC50 [2] | IC50 [3] | other results |
| --- | --- | --- | --- | --- |
| O=[N+]([O-])c1cccc(-n2cc(CN(Cc3cn(-c4cccc([N+](=O)[O-])c4)nn3)c3ccc4nc(-c5ccccc5)c(-c5ccccc5)nc4c3)nn2)c1 | – | – | 9.76 to 3540 µM | – |
| FC(F)(F)c1cccc(-n2cc(CNc3ccc4nc(-c5ccccc5)c(-c5ccccc5)nc4c3)nn2)c1 | – | – | 7.1 to 153 µM | – |
| c1ccc(-c2nc3ccc(N(Cc4cn(-c5ccccc5)nn4)Cc4cn(-c5ccccc5)nn4)cc3nc2-c2ccccc2)cc1 | – | – | 9.76 to 3540 µM | – |
| CC(=O)c1ccc(OCc2cn(CCCNc3ccnc4cc(Cl)ccc34)nn2)cc1 | 0.59 µM | 1.14 µM | – | – |
| Cc1cc(OCc2cn(CCNc3ccnc4cc(Cl)ccc34)nn2)ccc1Cl | 0.9 to 11.5 µM | 0.9 to 11.5 µM | – | – |
| COc1ccc2cc3[n+](cc2c1OCc1cn(-c2ccc(S(=O)(=O)Nc4ccc([N+](=O)[O-])cc4)cc2)nn1)CCc1cc2c(cc1-3)OCO2 | – | – | – | IC50 [6]: 0.142 to 28 µM |
| FC(F)(F)c1cccc(-n2cc(CN(Cc3cn(-c4cccc(C(F)(F)F)c4)nn3)c3ccc4nc(-c5ccccc5)c(-c5ccccc5)nc4c3)nn2)c1 | – | – | 9.76 to 3540 µM | – |
| COc1ccc(NS(=O)(=O)c2ccc(-n3cc(COc4c(OC)ccc5cc6[n+](cc45)CCc4cc5c(cc4-6)OCO5)nn3)cc2)cc1 | – | – | – | IC50 [6]: 0.142 to 28 µM |
| Fc1ccc(-n2cc(CN(Cc3cn(-c4ccc(F)cc4)nn3)c3ccc4nc(-c5ccccc5)c(-c5ccccc5)nc4c3)nn2)cc1 | – | – | 9.76 to 3540 µM | – |
| COc1cccc(-n2cc(CN(Cc3cn(-c4cccc(OC)c4)nn3)c3ccc4nc(-c5ccccc5)c(-c5ccccc5)nc4c3)nn2)c1 | – | – | 9.76 to 3540 µM | – |
| O=C(c1cn(CCNc2ccnc3cc(Cl)ccc23)nn1)C1CCCCO1 (stereo not given) | 0.9 to 11.5 µM | 0.9 to 11.5 µM | – | – |
| COc1ccc2cc3[n+](cc2c1OCc1cn(-c2ccc(S(=O)(=O)Nc4ccc(F)cc4)cc2)nn1)CCc1cc2c(cc1-3)OCO2 | – | – | – | IC50 [6]: 0.142 to 28 µM |
| COc1ccc2cc3[n+](cc2c1OCc1cn(-c2ccc(S(=O)(=O)Nc4ccc(Cl)cc4)cc2)nn1)CCc1cc2c(cc1-3)OCO2 | – | – | – | IC50 [6]: 0.142 to 28 µM; IC50 [7]: 0.142 µM |
| O=[N+]([O-])c1ccc(OCc2cn(CCNc3ccnc4cc(Cl)ccc34)nn2)cc1 | 0.9 to 11.5 µM | 0.9 to 11.5 µM | – | – |
| Fc1ccc(-c2nc3ccc(N(Cc4cn(-c5cccc(C(F)(F)F)c5)nn4)Cc4cn(-c5cccc(C(F)(F)F)c5)nn4)cc3nc2-c2ccc(F)cc2)cc1 | – | – | 9.76 to 3540 µM | – |
| O=C(CSc1nnc(Cc2ccccc2)n1-c1ccc(Cl)cc1)N1CCc2ccccc21 | – | 48.8 µM | – | IC50 [4]: 48.8 µM |
| Fc1ccc(-c2nc3ccc(NCc4cn(-c5ccccc5)nn4)cc3nc2-c2ccc(F)cc2)cc1 | – | – | 7.1 to 153 µM | – |
| COc1ccc2cc3[n+](cc2c1OCc1cn(-c2ccc(S(=O)(=O)N4CCN(C)CC4)cc2)nn1)CCc1cc2c(cc1-3)OCO2 | – | – | – | IC50 [6]: 0.142 to 28 µM |
| COc1ccc2cc3[n+](cc2c1OCc1cn(-c2ccc(S(=O)(=O)N4CCCCC4)cc2)nn1)CCc1cc2c(cc1-3)OCO2 | – | – | – | IC50 [6]: 0.142 to 28 µM |
| CC(C)c1ccc(OCc2cn(CCNc3ccnc4cc(Cl)ccc34)nn2)cc1 | 0.9 to 11.5 µM | 0.9 to 11.5 µM | – | – |

| SMILES | IC50 [1] | IC50 [2] | IC50 [3] | other results |
| --- | --- | --- | --- | --- |
| COc1ccc2cc3[n+](cc2c1OCc1cn(-c2ccc(S(N)(=O)=O)cc2)nn1)CCc1cc2c(cc1-3)OCO2 | – | – | – | IC50 [6]: 0.142 to 28 µM |
| OCc1cn(CCCNc2ccnc3cc(Cl)ccc23)nn1 | 0.59 to 4.71 µM | 0.59 to 4.71 µM | – | – |
| Fc1ccc(-c2nc3ccc(NCc4cn(-c5cccc(C(F)(F)F)c5)nn4)cc3nc2-c2ccc(F)cc2)cc1 | – | – | 7.1 to 153 µM | – |
| CC[C@H]1OC(=O)C[C@@H](O)[C@H](C)C(O[C@@H]2O[C@H](C)[C@@H](O)[C@H](N(C)C)[C@H]2O)C(CC=O)C[C@@H](C)C(=N\OCc2cn(-c3cnc4ccccc4c3)nn2)/C=C/C(C)=C/[C@@H]1CO[C@@H]1O[C@H](C)[C@@H](O)[C@@H](OC)[C@H]1OC (stereo not given in full) | – | – | 2 µg/mL | MIC [8]: 0.5 to 1 µg/mL (≈ 0.502 to 1 µM); MIC [9]: 0.5 to 1 µg/mL (≈ 0.502 to 1 µM) |
| Cc1ccc(OCc2cn(CCNc3ccnc4cc(Cl)ccc34)nn2)cc1 | 0.9 to 11.5 µM | 0.9 to 11.5 µM | – | – |
| COc1ccc2cc3[n+](cc2c1OCc1cn(-c2ccc(S(=O)(=O)Nc4ccccc4)cc2)nn1)CCc1cc2c(cc1-3)OCO2 | – | – | – | IC50 [6]: 0.142 to 28 µM |
| Cc1ccc(-n2cc(CNc3ccc4nc(-c5ccc(F)cc5)c(-c5ccc(F)cc5)nc4c3)nn2)cc1 | – | – | 7.1 to 153 µM | – |
| COc1ccc2cc3[n+](cc2c1OCc1cn(-c2ccc(S(=O)(=O)Nc4ccc(Br)cc4)cc2)nn1)CCc1cc2c(cc1-3)OCO2 | – | – | – | IC50 [6]: 0.142 to 28 µM |
| Fc1ccc(-c2nc3ccc(N(Cc4cn(-c5ccc(F)cc5)nn4)Cc4cn(-c5ccc(F)cc5)nn4)cc3nc2-c2ccc(F)cc2)cc1 | – | – | 9.76 to 3540 µM | – |
| O=[N+]([O-])c1cccc(-n2cc(CNc3ccc4nc(-c5ccc(F)cc5)c(-c5ccc(F)cc5)nc4c3)nn2)c1 | – | – | 7.1 to 153 µM | – |
| CC[C@H]1OC(=O)C[C@@H](O)[C@H](C)C(O[C@@H]2O[C@H](C)[C@@H](O)[C@H](N(C)C)[C@H]2O)C(CC=O)C[C@@H](C)C(=N\OCCCc2cn(-c3cnc4ccccc4c3)nn2)/C=C/C(C)=C/[C@@H]1CO[C@@H]1O[C@H](C)[C@@H](O)[C@@H](OC)[C@H]1OC (stereo not given in full) | – | – | 0.73 µg/mL | CC50 [10]: 43 µg/mL (≈ 42 µM); selectivity ratio [11]: 59; MIC [8]: 0.5 to 1 µg/mL (≈ 0.489 to 0.977 µM); selectivity ratio [12]: 59; MIC [9]: 0.5 to 1 µg/mL (≈ 0.489 to 0.977 µM) |
| O=[N+]([O-])c1cccc(-n2cc(CN(Cc3cn(-c4cccc([N+](=O)[O-])c4)nn3)c3ccc4nc(-c5ccc(F)cc5)c(-c5ccc(F)cc5)nc4c3)nn2)c1 | – | – | 9.76 to 3540 µM | – |
| Cc1ccc(-n2cc(CN(Cc3cn(-c4ccc(C)cc4)nn3)c3ccc4nc(-c5ccccc5)c(-c5ccccc5)nc4c3)nn2)cc1 | – | – | 9.76 to 3540 µM | – |
| c1ccc(-c2nc3ccc(NCc4cn(-c5ccccc5)nn4)cc3nc2-c2ccccc2)cc1 | – | – | 7.1 to 153 µM | – |
| Clc1ccc(OCc2cn(CCNc3ccnc4cc(Cl)ccc34)nn2)cc1 | 0.9 to 11.5 µM | 0.9 to 11.5 µM | – | – |
| Cc1ccc(-n2cc(CN(Cc3cn(-c4ccc(C)cc4)nn3)c3ccc4nc(-c5ccc(F)cc5)c(-c5ccc(F)cc5)nc4c3)nn2)cc1 | – | – | 9.76 to 3540 µM | – |
| COc1cccc(-n2cc(CNc3ccc4nc(-c5ccc(F)cc5)c(-c5ccc(F)cc5)nc4c3)nn2)c1 | – | – | 7.1 to 153 µM | – |
| O=[N+]([O-])c1cccc(-n2cc(CNc3ccc4nc(-c5ccccc5)c(-c5ccccc5)nc4c3)nn2)c1 | – | – | 7.1 to 153 µM | – |
| Fc1ccc(-c2nc3ccc(NCc4cn(-c5ccc(F)cc5)nn4)cc3nc2-c2ccc(F)cc2)cc1 | – | – | 7.1 to 153 µM | – |
| C[C@@H]1CC[C@H]2[C@@H](C)C(=O)O[C@@H]3O[C@@]4(C)CC[C@@H]1[C@]32OO4 [ARTEMISININ] | 0.03 µM | 0.25 µM | – | – |
